# What was measured:
# Caco-2 cells [1] = assay: MTT assay cytotoxicity; format: cell-based
# Protocol: (§1) Caco-2 cells were purchased from American Type Culture Collection (ATCC, USA) and maintained in Dulbecco's Modified Eagles Medium (DMEM) supplemented with 15% filtered sterile foetal bovine serum. Cells were incubated at 37° C. and 5% CO2 and were routinely sub-cultured every 4 days when 90% confluent. Cell count and viability was determined using a Countess automated cell counter (Invitrogen).
# (§2) Caco-2 cells were seeded at a density of 1.0×10^4 cells/100 μl in DMEM supplemented with 15% FBS into each well of a 96 well plate (Nunclon, Denmark) and incubated at 37° C. and 5% CO2. Cells from 4 separate flasks of biological replicates of each cell type were used (N1-4) to improve statistical power. Media was then aspirated from column 1 and replaced with media containing each polydendron or aqueous Nile Red solution at an equivalent 1 μM Nile Red concentration then diluted 1:1 in media across the plate up to column 11. Column 12 served as a negative control and consisted of media and untreated cells. Following polydendron addition, the plates were incubated for 24 hours or 120 hours at 37° C., 5% CO2 prior to assessment of cytotoxicity.
# Following incubation of treated plates for 24 h or 120 h, 20 μl of 5 mg ml^−1 MTT reagent was added to each well and incubated for 2 hours. Subsequently, 100 μL MTT lysis buffer (50% N—N-Dimethylformamide in water containing 20% SDS, 2.5% glacial acetic acid and 2.5% hydrochloric acid, pH 4.7) was added to each well to lyse overnight at 37° C., 5% CO2. Following incubation the absorbance of each well was read using a Tecan Genosis plate reader at 560 nm (Tecan Magellan, Austria).
# Caco-2 cells [2] = assay: ATP assay (CellTiter-Glo) cytotoxicity; format: cell-based
# Protocol: as §1, §2
# Following incubation of treated plates for 24 h or 120 h, cells were equilibrated to room temperature for approximately 30 minutes. All but 20 μl of media was removed from each well and 20 μl CellTiter-Glo® (Promega, UK) reagent was added. All reagents were made fresh and in accordance with the manufacturer's instructions. Plates were put on an orbital shaker for 10 minutes to mix contents and allow for stabilisation of luminescence signal. Luminescence was then measured using a Tecan Genios plate reader (Tecan Magellan, Austria).
# Caco-2 cell monolayers = assay: Transcellular permeability of Nile Red across Caco-2 monolayers; format: in vitro ADME; details: 1 hour incubation
# Protocol: Transwells were seeded with 3.5×10^4 cells per well and propagated to a monolayer over a 21 day period, during which media in the apical and basolateral wells was changed every other day. Trans-epithelial electrical resistance (TEER) values were monitored until they were >1300Ω. 1 μM of Nile Red polydendron or 1 μM aqueous Nile Red was added to the apical chamber of 4 wells and the basolateral chamber of 4 wells to quantify transport in both Apical to Basolateral (A>B) and Basolateral to Apical (B>A) direction and sampled on an hourly basis over a 4 h time period. Apparent permeability coefficient was then determined by the amount of compound transported over time using the equation: […]
# where (dQ/dt) is the amount per time (nmol·sec^−1), A is the surface area of the filter and C0 is the starting concentration of the donor chamber (1 μM).
# 100 μl of each collected sample was mixed with 900 μl acetone, vortexed, sonicated for 6 minutes and centrifuged at 13300 rpm for 3 minutes. The supernatant was completely dried in a vacuum centrifuge at 30° C. until the dry solid sample was left. This was reconstituted in 150 μl acetonitrile, transferred to a 96-well black walled, flat bottomed plate and measured for fluorescence intensity excitation wavelength 480 nm, emission wavelength 560 nm using a Tecan Genios plate reader (Tecan Magellan, Austria).
compound,measurement,setting,value
"CCN(CC)c1ccc2nc3c4ccccc4c(=O)cc-3oc2c1 [aqueous Nile Red, Nile red]",effect on metabolic turnover of Caco-2 cells (MTT),"Caco-2 cells [1]; 24 hour incubation, compared to untreated cells, range of concentrations investigated",did not affect metabolic turnover
same,effect on viability of Caco-2 cells (MTT),"Caco-2 cells [1]; 120 hour incubation, range of concentrations investigated",did not affect the viability
same,"EC50, MTT assay","Caco-2 cells [1]; Caco-2 cells, 120 hour incubation, FIG. 7",No EC50
same,effect on ATP presence in Caco-2 cells,"Caco-2 cells [2]; 24 hour incubation, compared to untreated cells",ATP presence was not affected
same,effect on viability of Caco-2 cells (ATP assay),"Caco-2 cells [2]; 120 hour incubation, compared to untreated cells",viability was not affected
same,"EC50, ATP assay","Caco-2 cells [2]; Caco-2 cells, 120 hour incubation, FIG. 9",No EC50
same,A > B/B > A ratio,Caco-2 cell monolayers,3.7140

# — patent publication US20160159954A1, “POLYDENDRONS” (The Univeristy of Liverpool, priority 2013, published 2016)
